{"source": "patent US8637549B2", "about": "“Pyridons as PDK1 inhibitors” (Boehringer Ingelheim International GmbH, priority 2008, dated 2014)", "data": [{"target": "T1, His6-PDK1 (aa 52-556) (Homo sapiens, UniProt O15530)", "T1 construct": "15 μL His6-PDK1 (aa 52-556) 3.33 ng/well) and PDKtide; host or cells: baculovirus-infected insect cells", "T1 sequence (O15530 52-556)": "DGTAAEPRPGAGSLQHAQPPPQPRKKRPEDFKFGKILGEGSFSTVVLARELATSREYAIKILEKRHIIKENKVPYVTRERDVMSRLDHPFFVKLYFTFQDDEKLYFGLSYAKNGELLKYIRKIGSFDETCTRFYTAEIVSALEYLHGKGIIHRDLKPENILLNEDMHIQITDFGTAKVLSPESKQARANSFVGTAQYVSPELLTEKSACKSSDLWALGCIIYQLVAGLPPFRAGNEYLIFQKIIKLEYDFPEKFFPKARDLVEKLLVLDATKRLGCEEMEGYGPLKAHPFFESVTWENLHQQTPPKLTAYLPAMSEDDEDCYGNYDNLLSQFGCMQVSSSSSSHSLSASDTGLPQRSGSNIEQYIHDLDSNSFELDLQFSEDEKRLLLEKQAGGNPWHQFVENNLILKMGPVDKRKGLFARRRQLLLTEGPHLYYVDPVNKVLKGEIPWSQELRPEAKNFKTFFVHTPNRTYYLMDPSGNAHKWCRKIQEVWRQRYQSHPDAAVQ", "assay": "PDK1 kinase assay III (with Tween 20)", "format": "biochemical", "settings": "10 μM compound, residual enzyme activity relative to DMSO control, unmarked values, read-out: % CTL", "protocol": "Another PDK1 assay was developed which by comparison with PDK1 assay 1 additionally contains Tween 20:\nThe following components are combined in a well of a 96-well round-based dish (Messrs. Greiner bio-one, No. 650101): • 15 μL of compound to be tested in varying concentrations (e.g. Starting at 10 μM, and diluted in steps of 1:5) in APT buffer (50 mM tris/C1 pH7.5; 0.05% β-mercaptoethanol; 10 mM Mg-acetate; 0.0166% Tween 20; 3.33% DMSO) • 15 μL His6-PDK1 (aa 52-556) 3.33 ng/well) and PDKtide (KTFCGTPEYLAPEVRRE […]), synthesised by Pepceuticals Limited, Nottingham, United Kingdom; 25 μM final concentration); His6-PDK1 and PDKtide are together diluted accordingly in assay buffer (50 mM tris pH 7.5, 0.05% β-mercaptoethanol, 10 mM Mg-acetate); PDKtide is present in this mixture as an 83.3 μM solution. These 30 μL are routinely incubated for 30 min at RT. • 20 μL ATP solution (25 μM ATP with 1.0 μCi/well gamma-P33-ATP). The final concentration of Tween 20 is 0.005%.\nThe reaction is started by adding the ATP solution and the mixture is incubated for 90 min at ambient temperature; at the start of the reaction the dishes are shaken gently. The reaction is stopped by the addition of 50 μL/well of 500 mM phosphoric acid (H3PO4) and incubated for about 20 min at ambient temperature. The precipitate is transferred by harvesting onto filter plates (96-well microtitre filter plate: UniFilter GF/C; Messrs Perkin Elmer; No. 6005174), then washed 6 times with 50 mM H3PO4 and dried at 60° C. Then the plate is stuck down with sealing tape, 25 μL/well of scintillation solution (Microscint 0; Messrs. Perkin Elmer; No. 6013611) are added and the amount of P33 precipitated is measured using the Wallac Betacounter. The measured data are evaluated using Graphpad Prism software.\nThe % CTL values indicate the residual activity of the enzyme after the addition of the inhibitory compound in the solvent DMSO in relation to the enzyme activity in the solvent DMSO without the addition of a compound (control). The majority of the values were determined using the PDK1 kinase assay III described hereinbefore. The values marked with an asterisk (*) were determined using the PDK1 kinase assay II described hereinbefore.", "units": {"remaining activity at 10 µM": "%"}, "values": [{"smiles": "CN(C)Cc1ccc(Nc2ncc3cc(/C=C/CNC(=O)c4cccn(Cc5cccnc5)c4=O)ccc3n2)cc1", "note": "[III-12, N-{(2E)-3-[2-({4-[(dimethylamino)methyl]phenyl}amino)quinazolin-6-yl]prop-2-en-1-yl}-2-oxo-1-(pyridin-3-ylmethyl)-1,2-dihydropyridine-3-carboxamide]", "remaining activity at 10 µM": 18.3}, {"smiles": "CN(C)Cc1ccc(Nc2ncc3cc(C#CCNC(=O)c4cccn(Cc5ccc(C(F)(F)F)nc5)c4=O)ccc3n2)cc1", "note": "[II-6, N-{3-[2-({4-[(dimethylamino)methyl]phenyl}amino)quinazolin-6-yl]prop-2-yn-1-yl}-2-oxo-1-{[6-(trifluoromethyl)pyridin-3-yl]methyl}-1,2-dihydropyridine-3-carboxamide]", "remaining activity at 10 µM": 16}, {"smiles": "CN(C)Cc1ccc(Nc2ncc3cc(/C=C/CNC(=O)c4cccn(Cc5ccc(C(F)(F)F)nc5)c4=O)ccc3n2)cc1", "note": "[III-16, N-{(2E)-3-[2-({4-[(dimethylamino)methyl]phenyl}amino)quinazolin-6-yl]prop-2-en-1-yl}-2-oxo-1-{[6-(trifluoromethyl)pyridin-3-yl]methyl}-1,2-dihydropyridine-3-carboxamide]", "remaining activity at 10 µM": 19.2}, {"smiles": "Cn1cnc(Cn2cccc(C(=O)NC/C=C/c3ccc4c(c3)NC(=O)/C4=C\\c3cnc[nH]3)c2=O)c1", "note": "[I-27, N-{(2E)-3-[(3Z)-3-(1H-imidazol-5-ylmethylidene)-2-oxo-2,3-dihydro-1H-indol-6-yl]prop-2-en-1-yl}-1-[(1-methyl-1H-imidazol-4-yl)methyl]-2-oxo-1,2-dihydropyridine-3-carboxamide]", "remaining activity at 10 µM": 47.7}, {"smiles": "CN1CCC(Nc2ccc(Nc3ncc4cc(/C=C/CNC(=O)c5cccn(Cc6ccc(C(F)(F)F)nc6)c5=O)ccc4n3)cc2F)CC1", "note": "[III-14, N-{(2E)-3-[2-({3-fluoro-4-[(1-methylpiperidin-4-yl)amino]phenyl}amino)quinazolin-6-yl]prop-2-en-1-yl}-2-oxo-1-{[6-(trifluoromethyl)pyridin-3-yl]methyl}-1,2-dihydropyridine-3-carboxamide]", "remaining activity at 10 µM": 17.2}, {"smiles": "Cc1ccc(Cn2cccc(C(=O)NC/C=C/c3ccc4c(c3)NC(=O)/C4=C\\c3cnc[nH]3)c2=O)cn1", "note": "[I-24, N-{(2E)-3-[(3Z)-3-(1H-imidazol-5-ylmethylidene)-2-oxo-2,3-dihydro-1H-indol-6-yl]prop-2-en-1-yl}-1-[(6-methylpyridin-3-yl)methyl]-2-oxo-1,2-dihydropyridine-3-carboxamide]", "remaining activity at 10 µM": 20.1}, {"smiles": "O=C1Nc2cc(/C=C/CNC(=O)c3cccn(Cc4cccnc4)c3=O)ccc2/C1=C/c1cnc[nH]1", "note": "[I-7, N-{(2E)-3-[(3Z)-3-(1H-imidazol-5-ylmethylidene)-2-oxo-2,3-dihydro-1H-indol-6-yl]prop-2-en-1-yl}-2-oxo-1-(pyridin-3-ylmethyl)-1,2-dihydropyridine-3-carboxamide]", "remaining activity at 10 µM": 14.5}, {"smiles": "O=C1Nc2cc(/C=C/CNC(=O)c3cccn(Cc4ccncc4)c3=O)ccc2/C1=C/c1cnc[nH]1", "note": "[I-8, N-{(2E)-3-[(3Z)-3-(1H-imidazol-5-ylmethylidene)-2-oxo-2,3-dihydro-1H-indol-6-yl]prop-2-en-1-yl}-2-oxo-1-(pyridin-4-ylmethyl)-1,2-dihydropyridine-3-carboxamide]", "remaining activity at 10 µM": 25.1}, {"smiles": "O=C1Nc2cc(/C=C/CNC(=O)c3cccn(Cc4ccncc4)c3=O)ccc2/C1=C/c1ccc[nH]1", "note": "[I-5, 2-oxo-N-{(2E)-3-[(3Z)-2-oxo-3-(1H-pyrrol-2-ylmethylidene)-2,3-dihydro-1H-indol-6-yl]prop-2-en-1-yl}-1-(pyridin-4-ylmethyl)-1,2-dihydropyridine-3-carboxamide]", "remaining activity at 10 µM": 39.6}, {"smiles": "CN(C)Cc1ccc(Nc2ncc3cc(/C=C/CNC(=O)c4cccn(Cc5ccc(Cl)nc5)c4=O)ccc3n2)cc1", "note": "[III-13, 1-[(6-chloropyridin-3-yl)methyl]-N-{(2E)-3-[2-({4-[(dimethylamino)methyl]-phenyl}amino)quinazolin-6-yl]prop-2-en-1-yl}-2-oxo-1,2-dihydropyridine-3-carboxamide]", "remaining activity at 10 µM": 13.6}, {"smiles": "Cn1cncc1Cn1cccc(C(=O)NC/C=C/c2ccc3c(c2)NC(=O)/C3=C\\c2cnc[nH]2)c1=O", "note": "[I-26, N-{(2E)-3-[(3Z)-3-(1H-imidazol-5-ylmethylidene)-2-oxo-2,3-dihydro-1H-indol-6-yl]prop-2-en-1-yl}-1-[(1-methyl-1H-imidazol-5-yl)methyl]-2-oxo-1,2-dihydropyridine-3-carboxamide]", "remaining activity at 10 µM": 34.1}, {"smiles": "CN1CCC(Nc2ccc(Nc3ncc4cc(C#CCNC(=O)c5cccn(Cc6ccc(C(F)(F)F)nc6)c5=O)ccc4n3)cc2F)CC1", "note": "[II-7, N-{3-[2-({3-fluoro-4-[(1-methylpiperidin-4-yl)amino]phenyl}amino)quinazolin-6-yl]prop-2-yn-1-yl}-2-oxo-1-{[6-(trifluoromethyl)pyridin-3-yl]methyl}-1,2-dihydropyridine-3-carboxamide]", "remaining activity at 10 µM": 18.6}, {"smiles": "O=C1Nc2cc(/C=C/CNC(=O)c3cccn(Cc4cccnc4)c3=O)ccc2/C1=C/c1ccc[nH]1", "note": "[I-4, 2-oxo-N-{(2E)-3-[(3Z)-2-oxo-3-(1H-pyrrol-2-ylmethylidene)-2,3-dihydro-1H-indol-6-yl]prop-2-en-1-yl}-1-(pyridin-3-ylmethyl)-1,2-dihydropyridine-3-carboxamide]", "remaining activity at 10 µM": 18.6}, {"smiles": "O=C1Nc2cc(/C=C/CNC(=O)c3cccn(Cc4ccc(Cl)nc4)c3=O)ccc2/C1=C/c1ccc[nH]1", "note": "[I-2, 1-[(6-chloropyridin-3-yl)methyl]-2-oxo-N-{(2E)-3-[(3Z)-2-oxo-3-(1H-pyrrol-2-ylmethylidene)-2,3-dihydro-1H-indol-6-yl]prop-2-en-1-yl}-1,2-dihydropyridine-3-carboxamide]", "remaining activity at 10 µM": 21.4}, {"smiles": "O=C1Nc2cc(/C=C/CNC(=O)c3cccn(CC4CCCCC4)c3=O)ccc2/C1=C/c1ccc[nH]1", "note": "[I-13, 1-(cyclohexylmethyl)-2-oxo-N-{(2E)-3-[(3Z)-2-oxo-3-(1H-pyrrol-2-ylmethylidene)-2,3-dihydro-1H-indol-6-yl]prop-2-en-1-yl}-1,2-dihydropyridine-3-carboxamide]", "remaining activity at 10 µM": 25.7}, {"smiles": "O=C1Nc2cc(/C=C/CNC(=O)c3cccn(CC4CCCCC4)c3=O)ccc2/C1=C/c1cnc[nH]1", "note": "[I-25, 1-(cyclohexylmethyl)-N-{(2E)-3-[(3Z)-3-(1H-imidazol-5-ylmethylidene)-2-oxo-2,3-dihydro-1H-indol-6-yl]prop-2-en-1-yl}-2-oxo-1,2-dihydropyridine-3-carboxamide]", "remaining activity at 10 µM": 15.1}, {"smiles": "CN(C)CCNC(=O)c1cccc(-c2c[nH]c(/C=C3\\C(=O)Nc4cc(/C=C/CNC(=O)c5cccn(Cc6ccc(Cl)nc6)c5=O)ccc43)c2)c1", "note": "[I-3, 1-[(6-chloropyridin-3-yl)methyl]-N-{(2E)-3-[(3Z)-3-{[4-(3-{[2-(dimethylamino)-ethyl]carbamoyl}phenyl)-1H-pyrrol-2-yl]methylidene}-2-oxo-2,3-dihydro-1H-indol-6-yl]prop-2-en-1-yl}-2-oxo-1,2-dihydropyridine-3-carboxamide]", "remaining activity at 10 µM": 18.9}, {"smiles": "CN1CCC(N(C)c2ccc(Nc3ncc4cc(/C=C/CNC(=O)c5cccn(Cc6ccc(C(F)(F)F)nc6)c5=O)ccc4n3)cc2)CC1", "note": "[III-15, N-{(2E)-3-[2-({4-[methyl(1-methylpiperidin-4-yl)amino]phenyl}amino)quinazolin-6-yl]prop-2-en-1-yl}-2-oxo-1-{[6-(trifluoromethyl)pyridin-3-yl]methyl}-1,2-dihydropyridine-3-carboxamide]", "remaining activity at 10 µM": 21}, {"smiles": "O=C1Nc2cc(/C=C/CNC(=O)c3cccn(Cc4ccc(Cl)nc4)c3=O)ccc2/C1=C/c1cnc[nH]1", "note": "[I-1, 1-[(6-chloropyridin-3-yl)methyl]-N-{(2E)-3-[(3Z)-3-(1H-imidazol-5-ylmethylidene)-2-oxo-2,3-dihydro-1H-indol-6-yl]prop-2-en-1-yl}-2-oxo-1,2-dihydropyridine-3-carboxamide]", "remaining activity at 10 µM": 16.8}]}]}
